This is an account of results in patent US20260202414A1, “PROTEIN COMPLEXES FOR PROXIMITY-BASED LABELING OF INTRACELLULAR MICROENVIRONMENTS” (THE TRUSTEES OF PRINCETON UNIVERSITY, priority 2022, published 2026).

The subject of this assay is cereblon (CRBN). Kind of assay: Proximity labeling study with CRBN-bound iridium complex and diazo-biotin (FIG. 3/4). The format is cell-based. Conditions: transfected cells expressing CRBN with BCNK, tetrazine iridium complex bound to CRBN, diazo-biotin, irradiation; in the presence of CC-885 (without CC-885 only CRBN is enriched). From the text: Alternatively, the transition metal complex can be bonded to a derivatized amino acid or unnatural amino acid of the protein substrate or E3 ligase. Suitable click chemistry moieties of the transition metal complex and/or unnatural amino acid can be selected from the group consisting of DBCO, BCN, TCO, tetrazine, alkyne and azide. FIG. 3 illustrates validation of such a binding strategy with cereblon (CRBN). Transfected cells were employed to express CRBN with BCNK. Iridium complex comprising a tetrazine moiety was introduced to bind the iridium complex to CRBN. CRBN modulator CC-885 was added to bind to CRBN, and diazo-biotin was added as a protein labeling agent. The iridium complex was irradiated to form a reactive intermediate through energy transfer to the diazo-biotin as described further herein. The reactive intermediate binding to biomolecular species within a predetermined radius of the CRBN-Ir. FIG. 4 illustrates the results of the labeling study. […] In the absence of CC-885, only CRBN is enriched.

SMILES strings stand for the structures.

Regarding `Cc1ccc(NC(=O)NCc2ccc3c(c2)CN(C2CCC(=O)NC2=O)C3=O)cc1Cl` (stereo not shown) [CC-885], the “proteins enriched in the labeling study” value was “CRBN and GSPT1 are enriched”.
